In patent US20050197350A1, “Novel quinoline, tetrahydroquinazoline, and pyrimidine derivatives and methods of treatment related to the use thereof” (TAISHO PHARMACEUTICAL CO., LTD., priority 2003, published 2005) one finds class data, which are given here for 33 compounds.

The subject of this experiment is MCH receptors. The experiment can be described thus: MCH receptor activity class (method not given). The conditions noted are these: class by percent of control at 10^-7 M or IC50.

Consider `CSc1sc(C(=O)N[C@H]2CC[C@@H](Nc3cc(N(C)C)c4ccccc4n3)CC2)c(I)c1S(=O)(=O)C(C)C` [compound 766], for which the class is listed as 3 (Class 3 The value of percent of control at 10^−7 M was more than 60% or the value of IC50 was more than 200 nM.). Consider `CN(C)c1cc(N[C@H]2CC[C@@H](NC(=O)c3csc([N+](=O)[O-])c3)CC2)nc2ccccc12` [compound 767, N-(cis-4-{[4-(dimethylamino)quinolin-2-yl]amino}cyclohexyl)-5-nitrothiophene-3-carboxamide], for which the class is recorded as 1 (Class 1: The value of percent of control at 10^−7 M was less than 40% or the value of IC50 was less than 50 nM.). The same measure for `CN(C)c1cc(N[C@H]2CC[C@@H](NC(=O)c3cc([N+](=O)[O-])cn3C)CC2)nc2ccccc12` [compound 768, N-(cis-4-{[4-(dimethylamino)quinolin-2-yl]amino}cyclohexyl)-1-methyl-4-nitro-1H-pyrrole-2-carboxamide]: 1 (Class 1: The value of percent of control at 10^−7 M was less than 40% or the value of IC50 was less than 50 nM.); for `CN(C)c1cc(N[C@H]2CC[C@@H](NC(=O)c3cn(S(=O)(=O)c4ccccc4)c4ccccc34)CC2)nc2ccccc12` [compound 769]: 3 (Class 3 The value of percent of control at 10^−7 M was more than 60% or the value of IC50 was more than 200 nM.). As for `CN(C)c1cc(N[C@H]2CC[C@@H](NC(=O)c3ccc([N+](=O)[O-])cc3)CC2)nc2ccccc12` [compound 770, N-(cis-4-{[4-(dimethylamino)quinolin-2-yl]amino}cyclohexyl)-4-nitrobenzamide], the class was 1 (Class 1: The value of percent of control at 10^−7 M was less than 40% or the value of IC50 was less than 50 nM.).

Consider `COc1cc([N+](=O)[O-])ccc1C(=O)N[C@H]1CC[C@@H](Nc2cc(N(C)C)c3ccccc3n2)CC1` [compound 771, N-(cis-4-{[4-(dimethylamino)quinolin-2-yl]amino}cyclohexyl)-2-methoxy-4-nitrobenzamide], for which the class is given as 2 (Class 2: The value of percent of control at 10^−7 M was from 40% to 60% or the value of IC′50 was from 50 nM to 200 nM.). In the case of `CN(C)c1cc(N[C@H]2CC[C@@H](NC(=O)c3ccc(C(F)(F)F)c(F)c3)CC2)nc2ccccc12` [compound 772, N-(cis-4-{[4-(dimethylamino)quinolin-2-yl]amino}cyclohexyl)-3-fluoro-4-(trifluoromethyl)benzamide], the class was 1 (Class 1: The value of percent of control at 10^−7 M was less than 40% or the value of IC50 was less than 50 nM.). Consider `CN(C)c1cc(N[C@H]2CC[C@@H](NC(=O)c3ccc([N+](=O)[O-])cc3F)CC2)nc2ccccc12` [compound 773], for which the class was 3 (Class 3 The value of percent of control at 10^−7 M was more than 60% or the value of IC50 was more than 200 nM.). With `Cc1cc(C(=O)N[C@H]2CC[C@@H](Nc3cc(N(C)C)c4ccccc4n3)CC2)cc(C)c1[N+](=O)[O-]` [compound 774, N-(cis-4-{[4-(dimethylamino)quinolin-2-yl]amino}cyclohexyl)-3,5-dimethyl-4-nitrobenzamide], the class was 2 (Class 2: The value of percent of control at 10^−7 M was from 40% to 60% or the value of IC′50 was from 50 nM to 200 nM.). On to `Cc1cc(C)c(C(=O)C(=O)N[C@H]2CC[C@@H](Nc3cc(N(C)C)c4ccccc4n3)CC2)c(C)c1` [compound 775, N-(cis-4-{[4-(dimethylamino)quinolin-2-yl]amino}cyclohexyl)-2-mesityl-2-oxoacetamide], for which the class is recorded as 2 (Class 2: The value of percent of control at 10^−7 M was from 40% to 60% or the value of IC′50 was from 50 nM to 200 nM.). In the case of `CN(C)c1cc(N[C@H]2CC[C@@H](NC(=O)c3cnc4ccccc4c3)CC2)nc2ccccc12` [compound 776], the class is given as 3 (Class 3 The value of percent of control at 10^−7 M was more than 60% or the value of IC50 was more than 200 nM.). For `CN(C)c1cc(N[C@H]2CC[C@@H](NC(=O)c3ccc4ncsc4c3)CC2)nc2ccccc12` [compound 779], the class is reported as 3 (Class 3 The value of percent of control at 10^−7 M was more than 60% or the value of IC50 was more than 200 nM.).

Turning to `CN(C)c1cc(N[C@H]2CC[C@@H](NC(=O)c3cc(Cl)ccc3O)CC2)nc2ccccc12` [compound 780, 5-chloro-N-(cis-4-{[4-(dimethylamino)quinolin-2-yl]amino}cyclohexyl)-2-hydroxybenzamide], the class is listed as 2 (Class 2: The value of percent of control at 10^−7 M was from 40% to 60% or the value of IC′50 was from 50 nM to 200 nM.). Regarding `CSc1ccc(Cl)c(C(=O)N[C@H]2CC[C@@H](Nc3cc(N(C)C)c4ccccc4n3)CC2)c1` [compound 781], the class is 3 (Class 3 The value of percent of control at 10^−7 M was more than 60% or the value of IC50 was more than 200 nM.).

In the case of `COc1cccc2cc(C(=O)N[C@H]3CC[C@@H](Nc4cc(N(C)C)c5ccccc5n4)CC3)oc12` [compound 782], the class is given as 3 (Class 3 The value of percent of control at 10^−7 M was more than 60% or the value of IC50 was more than 200 nM.). Regarding `Cc1cccc(C(=O)N[C@H]2CC[C@@H](Nc3cc(N(C)C)c4ccccc4n3)CC2)c1N` [compound 783], the class is listed as 3 (Class 3 The value of percent of control at 10^−7 M was more than 60% or the value of IC50 was more than 200 nM.). The same measure for `COc1cc(C(=O)N[C@H]2CC[C@@H](Nc3cc(N(C)C)c4ccccc4n3)CC2)cc(OC)c1O` [compound 784]: 3 (Class 3 The value of percent of control at 10^−7 M was more than 60% or the value of IC50 was more than 200 nM.); for `CN(C)c1cc(N[C@H]2CC[C@@H](NC(=O)c3ccnc4ccccc34)CC2)nc2ccccc12` [compound 785]: 3 (Class 3 The value of percent of control at 10^−7 M was more than 60% or the value of IC50 was more than 200 nM.); for `C=CCSc1ncccc1C(=O)N[C@H]1CC[C@@H](Nc2cc(N(C)C)c3ccccc3n2)CC1` [compound 786]: 3 (Class 3 The value of percent of control at 10^−7 M was more than 60% or the value of IC50 was more than 200 nM.). Turning to `CN(C)c1cc(N[C@H]2CC[C@@H](NC(=O)c3cc(C(C)(C)C)c(O)c(C(C)(C)C)c3)CC2)nc2ccccc12` [compound 787], the class is 3 (Class 3 The value of percent of control at 10^−7 M was more than 60% or the value of IC50 was more than 200 nM.). Consider `CN(C)c1cc(N[C@H]2CC[C@@H](CNC(=O)c3ccc(Br)s3)CC2)nc2ccccc12` [compound 788], for which the class is listed as 3 (Class 3 The value of percent of control at 10^−7 M was more than 60% or the value of IC50 was more than 200 nM.). The same measure for `CN(C)c1cc(N[C@H]2CC[C@@H](CNC(=O)Cc3c(Cl)ccc(Cl)c3Cl)CC2)nc2ccccc12` [compound 789, N-[(cis-4-{[4-(dimethylamino)quinolin-2-yl]amino}cyclohexyl)methyl]-2-(2,3,6-trichlorophenyl)acetamide]: 1 (Class 1: The value of percent of control at 10^−7 M was less than 40% or the value of IC50 was less than 50 nM.); for `CN(C)c1cc(N[C@H]2CC[C@@H](CNC(=O)Cc3ccc(F)cc3Cl)CC2)nc2ccccc12` [compound 790]: 3 (Class 3 The value of percent of control at 10^−7 M was more than 60% or the value of IC50 was more than 200 nM.); for `CN(C)c1cc(N[C@H]2CC[C@@H](CNC(=O)c3ccc(-c4ccc(Cl)cc4[N+](=O)[O-])o3)CC2)nc2ccccc12` [compound 791]: 3 (Class 3 The value of percent of control at 10^−7 M was more than 60% or the value of IC50 was more than 200 nM.). As for `CN(C)c1cc(N[C@H]2CC[C@@H](CNC(=O)c3ccc(Cl)s3)CC2)nc2ccccc12` [compound 792], the class is recorded as 3 (Class 3 The value of percent of control at 10^−7 M was more than 60% or the value of IC50 was more than 200 nM.). With `CN(C)c1cc(N[C@H]2CC[C@@H](CNC(=O)CCc3ccccc3O)CC2)nc2ccccc12` [compound 794], the class is 3 (Class 3 The value of percent of control at 10^−7 M was more than 60% or the value of IC50 was more than 200 nM.). On to `CN(C)c1cc(N[C@H]2CC[C@@H](CNC(=O)c3ccc(I)o3)CC2)nc2ccccc12` [compound 795, N-[(cis-4-{[4-(dimethylamino)quinolin-2-yl]amino}cyclohexyl)methyl]-5-iodo-2-furamide], for which the class is 3 (Class 3 The value of percent of control at 10^−7 M was more than 60% or the value of IC50 was more than 200 nM.). With `CN(C)c1cc(N[C@H]2CC[C@@H](CNC(=O)Cc3ccccc3I)CC2)nc2ccccc12` [compound 796] the figure was 3 (Class 3 The value of percent of control at 10^−7 M was more than 60% or the value of IC50 was more than 200 nM.); with `CN(C)c1cc(N[C@H]2CC[C@@H](CNC(=O)/C=C/c3cccc([N+](=O)[O-])c3)CC2)nc2ccccc12` [compound 797], 2 (Class 2: The value of percent of control at 10^−7 M was from 40% to 60% or the value of IC′50 was from 50 nM to 200 nM.); with `CN(C)c1cc(N[C@H]2CC[C@@H](CNC(=O)c3ccccc3Cc3ccccc3)CC2)nc2ccccc12` [compound 799], 3 (Class 3 The value of percent of control at 10^−7 M was more than 60% or the value of IC50 was more than 200 nM.). With `CN(C)c1cc(N[C@H]2CC[C@@H](CNC(=O)C(c3ccc(Cl)cc3)c3ccc(Cl)cc3)CC2)nc2ccccc12` [compound 800, 2,2-bis(4-chlorophenyl)-N-[(cis-4-{[4-(dimethylamino)quinolin-2-yl]amino}cyclohexyl)methyl]acetamide], the class is on record as 3 (Class 3 The value of percent of control at 10^−7 M was more than 60% or the value of IC50 was more than 200 nM.). With `Cc1ccc(-c2ccc(C(=O)NC[C@H]3CC[C@@H](Nc4cc(N(C)C)c5ccccc5n4)CC3)o2)c([N+](=O)[O-])c1` [compound 801], the class is recorded as 3 (Class 3 The value of percent of control at 10^−7 M was more than 60% or the value of IC50 was more than 200 nM.). On to `CN(C)c1cc(N[C@H]2CC[C@@H](CNC(=O)c3ccc([N+](=O)[O-])s3)CC2)nc2ccccc12` [compound 802, N-[(cis-4-{[4-(dimethylamino)quinolin-2-yl]amino}cyclohexyl)methyl]-5-nitrothiophene-2-carboxamide], for which the class is reported as 3 (Class 3 The value of percent of control at 10^−7 M was more than 60% or the value of IC50 was more than 200 nM.).
